According to patent US8822517B2, “Arylosulfonamides for the treatment of CNS diseases” (Adamed SP. Z O.O., priority 2010, dated 2014):

Key:
[1] = biological target: T1, serotonine transporter (SERT) receptor (Homo sapiens, UniProt P31645); assay: Binding assay SERT (h), [3H]imipramine, CHO cells; details: read-out: SERT [%]
T1 construct: expressed in transfected cells; host or cells: CHO cells
Method in brief: (§1)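 Radioligand displacement at 1×10^−6 M compound, with detection by scintillation counting. Nonspecific signal is measured using an excess of non-radioactive ligand.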

[2] = tested on: sigma σ receptor; assay: Binding assay σ (non-selective), [3H]DTG, rat cerebral cortex; details: percent inhibition of control specific binding; compounds tested at 1×10^−6 M
Procedure: (§2) The specific ligand binding to the receptors is defined as the difference between the total binding and the nonspecific binding determined in the presence of an excess of so unlabelled ligand.
(§3) The specific Ligand binding to the receptor is defined as the difference between total and non-specific binding determined in the presence of an excess of unlabelled ligand. The compounds were tested at a concentration of 1×10^−6 M, and scintillation counting was the method of detection of ligand binding.

[3] = tested on: adrenergic α1 receptor; assay: Binding assay α1 (non-selective), [3H]prazosin, rat cerebral cortex; details: percent inhibition of control specific binding; compounds tested at 1×10^−6 M
Method in brief: as §1

[4] = biological target: T2, muscarinic M3 receptor (Homo sapiens, UniProt P20309); assay: Binding assay M3 (h), [3H]4-DAMP, CHO cells; details: read-out: M3 [%]
T2 construct: expressed in transfected cells; host or cells: CHO cells
Procedure: as §2, §3

[5] = biological target: T3, serotoninergic receptor 5-HT2C (Homo sapiens, UniProt P28335); assay: Binding assay 5-HT2C (h), [3H]mesulergine, HEK-293 cells; details: read-out: 5-HT2C [%]
T3 construct: expressed in transfected cells; host or cells: HEK-293 cells
T3 sequence (P28335 33-458): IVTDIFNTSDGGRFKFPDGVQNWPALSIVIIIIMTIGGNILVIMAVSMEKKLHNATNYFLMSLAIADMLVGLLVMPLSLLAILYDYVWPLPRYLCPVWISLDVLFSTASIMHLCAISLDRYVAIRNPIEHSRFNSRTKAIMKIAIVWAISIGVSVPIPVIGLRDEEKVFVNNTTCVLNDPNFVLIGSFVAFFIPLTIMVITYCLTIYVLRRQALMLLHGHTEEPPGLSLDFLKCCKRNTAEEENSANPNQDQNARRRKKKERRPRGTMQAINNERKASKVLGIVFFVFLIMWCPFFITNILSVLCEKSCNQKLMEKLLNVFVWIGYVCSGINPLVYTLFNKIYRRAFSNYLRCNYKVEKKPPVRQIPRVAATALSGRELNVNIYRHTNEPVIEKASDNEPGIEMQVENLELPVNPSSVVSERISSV
Procedure: as §2, §3

[6] = biological target: dopaminergic D3 receptor (Homo sapiens, UniProt P35462); assay: Binding assay D3 (h), [3H]methyl-spiperone, CHO cells; set-up: expressed in transfected cells; host or cells: CHO cells; details: read-out: D3 [%]
Method in brief: as §1

[7] = biological target: serotoninergic 5-HT6 receptor (Homo sapiens, UniProt P50406); assay: Binding assay 5-HT6 (h), [3H]LSD, CHO cells; set-up: expressed in transfected cells; host or cells: CHO cells; details: read-out: 5-HT6
Method in brief: as §1

[8] = biological target: serotoninergic 5-HT7 receptor (Homo sapiens, UniProt P34969); assay: Binding assay 5-HT7 (h), [3H]LSD, CHO cells; set-up: expressed in transfected cells; host or cells: CHO cells; details: read-out: 5-HT7
Method in brief: as §1

[9] = biological target: T4, adrenergic α2C receptor (Homo sapiens, UniProt P18825); assay: Binding assay α2C (h), [3H]RX 821002, CHO cells; set-up: expressed in transfected cells; host or cells: CHO cells; details: read-out: α2C [%]
T4 sequence (P18825 1-462): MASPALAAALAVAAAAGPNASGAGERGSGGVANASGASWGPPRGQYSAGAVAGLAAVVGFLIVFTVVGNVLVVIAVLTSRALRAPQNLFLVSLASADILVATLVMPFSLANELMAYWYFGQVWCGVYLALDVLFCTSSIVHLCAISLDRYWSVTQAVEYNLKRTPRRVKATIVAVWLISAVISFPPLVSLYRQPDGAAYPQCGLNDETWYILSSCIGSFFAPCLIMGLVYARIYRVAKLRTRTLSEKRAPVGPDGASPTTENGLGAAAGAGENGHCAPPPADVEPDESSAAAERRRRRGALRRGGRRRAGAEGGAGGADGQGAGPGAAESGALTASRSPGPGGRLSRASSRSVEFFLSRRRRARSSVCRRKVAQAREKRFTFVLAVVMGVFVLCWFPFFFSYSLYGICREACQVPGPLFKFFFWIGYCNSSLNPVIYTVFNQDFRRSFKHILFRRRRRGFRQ
Procedure: as §2, §3

[10] = biological target: dopaminergic D2 receptor (Homo sapiens, UniProt P14416); assay: Binding assay D2S (h), [3H]methyl-spiperone, HEK-293 cells; set-up: expressed in transfected cells; host or cells: HEK-293 cells; details: read-out: D2 [%]
Method in brief: as §1

[11] = biological target: T5, serotoninergic 5-HT1A receptor (Homo sapiens, UniProt P08908); assay: Binding assay 5-HT1A (h), [3H]8-OH-DPAT, HEK-293 cells; set-up: expressed in transfected cells; host or cells: HEK-293 cells; details: read-out: 5-HT1A
T5 sequence (P08908 1-422): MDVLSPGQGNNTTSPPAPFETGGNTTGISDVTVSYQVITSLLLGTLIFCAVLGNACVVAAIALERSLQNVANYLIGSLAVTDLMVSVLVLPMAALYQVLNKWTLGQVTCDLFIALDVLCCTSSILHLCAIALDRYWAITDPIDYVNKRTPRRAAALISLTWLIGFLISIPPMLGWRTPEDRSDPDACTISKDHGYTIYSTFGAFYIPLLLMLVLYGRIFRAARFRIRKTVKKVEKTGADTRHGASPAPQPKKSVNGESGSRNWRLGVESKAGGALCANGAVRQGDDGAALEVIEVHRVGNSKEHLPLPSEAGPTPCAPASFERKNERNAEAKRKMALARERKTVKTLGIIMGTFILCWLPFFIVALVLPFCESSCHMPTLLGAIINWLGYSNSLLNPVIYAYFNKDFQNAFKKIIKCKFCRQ
Method in brief: as §1

[12] = biological target: serotoninergic 5-HT2A receptor (Homo sapiens, UniProt P28223); assay: Binding assay 5-HT2A (h), [3H]ketanserin, HEK-293 cells; set-up: expressed in transfected cells; host or cells: HEK-293 cells; details: read-out: 5-HT2A
Method in brief: as §1

[13] = biological target: histaminergic H1 receptor (Homo sapiens, UniProt P35367); assay: Binding assay H1 (h), [3H]pyrilamine, HEK-293 cells; set-up: expressed in transfected cells; host or cells: HEK-293 cells; details: read-out: H1 [%]
Procedure: as §2, §3

serotoninergic 5-HT6 receptor, sequence (P50406 whole entry): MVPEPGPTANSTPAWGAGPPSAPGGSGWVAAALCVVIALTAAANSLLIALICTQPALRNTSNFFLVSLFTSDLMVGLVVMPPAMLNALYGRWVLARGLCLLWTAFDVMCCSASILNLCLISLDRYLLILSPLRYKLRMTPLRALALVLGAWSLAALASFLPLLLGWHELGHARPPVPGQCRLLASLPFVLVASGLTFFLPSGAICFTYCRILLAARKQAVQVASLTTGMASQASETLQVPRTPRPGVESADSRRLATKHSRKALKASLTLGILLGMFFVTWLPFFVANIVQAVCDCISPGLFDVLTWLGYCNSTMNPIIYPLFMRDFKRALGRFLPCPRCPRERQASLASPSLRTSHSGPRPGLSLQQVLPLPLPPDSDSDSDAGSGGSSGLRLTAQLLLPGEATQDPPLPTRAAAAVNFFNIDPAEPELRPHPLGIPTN
T2 sequence (P20309 whole entry): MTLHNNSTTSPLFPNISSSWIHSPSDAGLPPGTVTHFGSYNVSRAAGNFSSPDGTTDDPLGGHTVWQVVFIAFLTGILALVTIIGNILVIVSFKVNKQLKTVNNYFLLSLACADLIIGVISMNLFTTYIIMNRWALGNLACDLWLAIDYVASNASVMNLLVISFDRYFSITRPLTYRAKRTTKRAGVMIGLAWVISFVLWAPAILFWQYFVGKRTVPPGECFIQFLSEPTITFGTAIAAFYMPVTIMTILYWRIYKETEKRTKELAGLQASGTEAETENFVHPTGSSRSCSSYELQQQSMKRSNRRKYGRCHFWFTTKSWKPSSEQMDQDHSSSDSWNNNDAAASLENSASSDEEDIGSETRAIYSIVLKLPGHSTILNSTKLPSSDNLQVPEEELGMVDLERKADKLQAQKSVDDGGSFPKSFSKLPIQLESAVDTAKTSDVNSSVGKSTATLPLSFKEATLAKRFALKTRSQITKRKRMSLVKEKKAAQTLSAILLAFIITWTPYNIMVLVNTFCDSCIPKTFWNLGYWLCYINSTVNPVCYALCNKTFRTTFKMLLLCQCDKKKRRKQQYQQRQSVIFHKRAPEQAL
serotoninergic 5-HT2A receptor, sequence (P28223 whole entry): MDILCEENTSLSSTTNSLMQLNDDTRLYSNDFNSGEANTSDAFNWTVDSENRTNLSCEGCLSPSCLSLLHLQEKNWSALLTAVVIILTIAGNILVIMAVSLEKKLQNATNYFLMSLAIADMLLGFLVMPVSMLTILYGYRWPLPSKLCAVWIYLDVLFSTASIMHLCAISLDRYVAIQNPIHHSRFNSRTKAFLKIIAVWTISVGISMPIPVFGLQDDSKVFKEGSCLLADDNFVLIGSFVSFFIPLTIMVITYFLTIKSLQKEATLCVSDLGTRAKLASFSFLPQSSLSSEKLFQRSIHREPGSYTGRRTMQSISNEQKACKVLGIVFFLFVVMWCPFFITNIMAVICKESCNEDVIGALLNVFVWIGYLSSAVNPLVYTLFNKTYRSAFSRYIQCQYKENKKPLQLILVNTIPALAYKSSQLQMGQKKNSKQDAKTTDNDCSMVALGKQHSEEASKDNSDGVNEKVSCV
T1 sequence (P31645 whole entry): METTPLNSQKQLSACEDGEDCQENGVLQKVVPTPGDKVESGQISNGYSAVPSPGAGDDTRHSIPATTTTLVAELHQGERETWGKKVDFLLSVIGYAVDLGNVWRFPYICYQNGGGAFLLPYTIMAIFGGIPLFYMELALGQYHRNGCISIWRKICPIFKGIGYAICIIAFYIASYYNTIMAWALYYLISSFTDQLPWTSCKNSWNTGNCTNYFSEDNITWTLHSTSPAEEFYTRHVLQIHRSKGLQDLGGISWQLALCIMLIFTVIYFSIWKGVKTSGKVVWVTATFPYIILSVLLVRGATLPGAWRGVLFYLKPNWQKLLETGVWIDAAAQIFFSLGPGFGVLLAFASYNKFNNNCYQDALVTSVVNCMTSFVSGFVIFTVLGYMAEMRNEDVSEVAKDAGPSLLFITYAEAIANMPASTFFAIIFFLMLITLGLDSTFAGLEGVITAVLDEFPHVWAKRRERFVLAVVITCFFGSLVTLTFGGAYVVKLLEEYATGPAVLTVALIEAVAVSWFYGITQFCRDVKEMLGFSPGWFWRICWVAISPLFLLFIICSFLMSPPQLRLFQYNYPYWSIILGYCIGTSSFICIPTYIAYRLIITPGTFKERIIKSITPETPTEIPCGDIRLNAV
histaminergic H1 receptor, sequence (P35367 whole entry): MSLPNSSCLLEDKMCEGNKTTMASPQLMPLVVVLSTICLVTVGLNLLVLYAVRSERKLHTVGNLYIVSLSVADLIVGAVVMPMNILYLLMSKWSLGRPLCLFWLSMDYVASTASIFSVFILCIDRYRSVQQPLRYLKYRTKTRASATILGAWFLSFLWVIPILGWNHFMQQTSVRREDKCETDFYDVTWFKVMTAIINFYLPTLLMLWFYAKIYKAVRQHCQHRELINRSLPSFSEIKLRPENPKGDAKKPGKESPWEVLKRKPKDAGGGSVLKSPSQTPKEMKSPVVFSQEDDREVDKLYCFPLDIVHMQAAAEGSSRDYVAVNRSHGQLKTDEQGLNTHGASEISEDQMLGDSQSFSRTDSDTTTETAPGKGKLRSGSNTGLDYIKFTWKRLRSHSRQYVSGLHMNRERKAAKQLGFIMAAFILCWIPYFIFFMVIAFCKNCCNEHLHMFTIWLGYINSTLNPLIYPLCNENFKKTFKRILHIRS
serotoninergic 5-HT7 receptor, sequence (P34969 whole entry): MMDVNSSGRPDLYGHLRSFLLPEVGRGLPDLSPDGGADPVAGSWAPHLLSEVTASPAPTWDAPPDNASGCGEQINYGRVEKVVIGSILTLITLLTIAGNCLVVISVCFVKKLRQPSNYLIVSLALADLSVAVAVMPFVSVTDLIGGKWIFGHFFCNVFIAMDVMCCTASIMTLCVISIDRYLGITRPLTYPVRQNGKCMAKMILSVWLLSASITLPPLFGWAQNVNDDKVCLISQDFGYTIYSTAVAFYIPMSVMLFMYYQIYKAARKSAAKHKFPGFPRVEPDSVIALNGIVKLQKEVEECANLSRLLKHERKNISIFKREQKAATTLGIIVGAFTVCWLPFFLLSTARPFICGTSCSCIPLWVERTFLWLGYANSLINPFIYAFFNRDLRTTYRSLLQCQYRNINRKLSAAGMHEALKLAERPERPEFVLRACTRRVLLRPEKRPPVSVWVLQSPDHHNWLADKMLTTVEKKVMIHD
dopaminergic D2 receptor, sequence (P14416 1-414 isoform P14416-2): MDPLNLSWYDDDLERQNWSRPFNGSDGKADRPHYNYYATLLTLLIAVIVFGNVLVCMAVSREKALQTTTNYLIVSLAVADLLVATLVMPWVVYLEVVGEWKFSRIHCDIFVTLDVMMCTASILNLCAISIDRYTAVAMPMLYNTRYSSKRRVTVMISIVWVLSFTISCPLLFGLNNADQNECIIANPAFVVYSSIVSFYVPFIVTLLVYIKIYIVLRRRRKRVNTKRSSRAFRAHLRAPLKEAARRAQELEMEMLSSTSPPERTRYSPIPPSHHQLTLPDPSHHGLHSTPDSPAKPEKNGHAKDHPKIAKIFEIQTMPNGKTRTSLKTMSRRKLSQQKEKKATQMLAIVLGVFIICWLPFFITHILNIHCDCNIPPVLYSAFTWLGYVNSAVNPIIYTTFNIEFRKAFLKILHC
dopaminergic D3 receptor, sequence (P35462 whole entry): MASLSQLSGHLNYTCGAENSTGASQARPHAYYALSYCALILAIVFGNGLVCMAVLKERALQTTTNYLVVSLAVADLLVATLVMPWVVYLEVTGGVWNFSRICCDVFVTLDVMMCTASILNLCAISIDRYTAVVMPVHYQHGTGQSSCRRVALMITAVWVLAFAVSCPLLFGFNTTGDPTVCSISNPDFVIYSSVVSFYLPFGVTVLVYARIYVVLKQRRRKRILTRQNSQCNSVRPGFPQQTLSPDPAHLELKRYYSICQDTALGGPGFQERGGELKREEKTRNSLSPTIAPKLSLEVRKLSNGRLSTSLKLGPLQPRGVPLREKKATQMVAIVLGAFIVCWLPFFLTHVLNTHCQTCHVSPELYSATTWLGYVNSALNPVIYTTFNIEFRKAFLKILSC

| Structure (SMILES) | inhibition at 1 µM [1] [%] | σ [%] [2] [%] | α1 [%] [3] [%] | inhibition at 1 µM [4] [%] | inhibition at 1 µM [5] [%] | inhibition at 1 µM [6] [%] | inhibition at 1 µM [7] [%] | inhibition at 1 µM [8] [%] | inhibition at 1 µM [9] [%] | inhibition at 1 µM [10] [%] | inhibition at 1 µM [11] [%] | inhibition at 1 µM [12] [%] | inhibition at 1 µM [13] [%] |
| --- | --- | --- | --- | --- | --- | --- | --- | --- | --- | --- | --- | --- | --- |
| O=c1[nH]c2cccc(N3CCN(CCCNS(=O)(=O)c4cccc(Cl)c4)CC3)c2[nH]1 [Compound 174, 3-Chloro-N-[3-[4-(2-oxo-1,3-dihydrobenzimidazol-4-yl)piperazin-1-yl]propyl]benzenesulphonamide] | 11 | −16 | 86 | 15 | 0 | 96 | 4 | 92 | 55 | 91 | 98 | -24 | 25 |
| O=c1[nH]c2cccc(N3CCN(CCCNS(=O)(=O)c4cccc(F)c4)CC3)c2[nH]1 [Compound 176, 3-Fluoro-N-[3-[4-(2-oxo-1,3-dihydrobenzimidazol-4-yl)piperazin-1-yl]propyl]benzenesulphonamide] | -3 | −25 | 77 | 6 | 9 | 95 | 29 | 80 | 44 | 89 | 97 | 7 | 8 |
| O=S(=O)(NCCCN1CCN(c2nsc3ccccc23)CC1)c1ccc(Cl)s1 [Compound 196, N-[3-[4-(1,2-Benzothiazol-3-yl)piperazin-1-yl]propyl]-5-chloro-thiophene-2-sulphonamide] | 75 | 66 | 93 | 18 | 89 | 97 | 92 | 100 | 95 | 98 | 99 | 102 | 93 |
| O=S(=O)(NCCCCN1CCN(c2nsc3ccccc23)CC1)c1cccc(O)c1 [Compound 231, N-[4-[4-(1,2-Benzothiazol-3-yl)piperazin-1-yl]butyl]-3-hydroxybenzenesulphonamide] | 59 | 62 | 96 | 11 | 87 | 97 | 95 | 99 | 99 | 99 | 97 | 101 | 97 |
| O=S(=O)(NCCCCN1CCN(c2nsc3ccccc23)CC1)c1cccc2scnc12 [Compound 243, N-[4-[4-(1,2-Benzothiazol-3-yl)piperazin-1-yl]butyl]-1,3-benzothiazole-4-sulphonamide] | 63 | 29 | 97 | 10 | 81 | 93 | 73 | 99 | 96 | 100 | 98 | 100 | 93 |
| O=S(=O)(NCCCCN1CCN(c2nsc3ccccc23)CC1)c1ccc2c(c1)OCO2 [Compound 245, N-[4-[4-(1,2-Benzothiazol-3-yl)piperazin-1-yl]butyl]-1,3-benzodioxole-5-sulphonamide] | 38 | 52 | 96 | 25 | 72 | 97 | 82 | 98 | 101 | 97 | 99 | 99 | 98 |
